Test system: mushroom tyrosinase
Test: Mushroom tyrosinase in vitro enzyme assay (absorbance at 492 nm)
Assay type: biochemical
Settings: in vitro tyrosinase (mushroom) enzyme activity
Experimental: Enzyme assay. The mushroom tyrosinase was used for the bioassay. It was purchased from Sigma Chemical Co. (St. Louis, Mo.). The assay was performed by adding 200 microliters of reaction cocktail (mixture of potassium phosphate buffer 50 mM, pH 6.5, 10 ml; 1 mM tyrosine solution, 10 ml and deionized water, 9 ml) and 10 microliters of tested extract dissolved in ethanol at concentration of 1 mg/ml followed by 10 microliters of tyrosinase (1000 units/ml) to 96-well plate. After 2 min incubation at room temperature, the initial absorbance was read at 492 nm on the plate reader. Final absorbance values were read after 10 minutes. The enzyme activity was calculated from the differential values for absorbance and then converted into inhibitory activity. Kojic acid was used as standard at a concentration of 1 mg/ml dissolved in 95% ethanol.

- Inhibition at 1 mg/ml (sample 1 mg/ml in ethanol, tyrosine substrate, Table 1 experiment): 88%
- Inhibition at 1 mg/ml (sample 1 mg/ml, extracts of different plant parts, Table 2 experiment): 86%
SMILES: O=c1cc(CO)occ1O [Kojic acid]

From patent US20060062865A1, “Tyrosinase inhibitor and method for preparation” (priority 2004, published 2006)
